Test results reported in ChEMBL document CHEMBL5726062, “Substituted oxopyridine derivatives” (2019).
pIC50: −log10 of the molar value.

Target: Coagulation factor XI (Homo sapiens, UniProt P03951)
Experiment: Measurement of FXIa Inhibition: The factor XIa inhibition of the substances according to the invention is determined using a biochemical test system which utilizes the reaction of a peptidic factor XIa substrate to determine the enzymatic activity of human factor XIa. Here, factor XIa cleaves from the peptic factor XIa substrate the C-terminal aminomethylcoumarin (AMC), the fluorescence of which is measured. The determinations are carried out in microtitre plates.Test substances are dissolved in dimethyl sulphoxide and serially diluted in dimethyl sulphoxide (3000 μM to 0.0078 μM; resulting final concentrations in the test: 50 μM to 0.00013 μM). 1 μl of the diluted substance solutions is placed into each of the wells of white microtitre plates from Greiner (384 wells). 20 μl of assay buffer (50 mM of Tris/HCl pH 7.4; 100 mM of sodium chloride; 5 mM of calcium chloride; 0.1% of bovine serum albumin) and 20 μl of factor XIa from Kordia (0.45 nM in assay buffer) are then added successively. After […] of incubation, the enzyme reaction is started by addition of 20 μl of the factor XIa substrate Boc-Glu(OBzl)-Ala-Arg-AMC dissolved in assay buffer (10 μM in assay buffer) from Bachem, the mixture is incubated at room temperature (22° C.) for 30 min and fluorescence is then measured (excitation: 360 nm, emission: 460 nm). […]

Chain of Coagulation factor XI (P03951 19-387 limits assumed): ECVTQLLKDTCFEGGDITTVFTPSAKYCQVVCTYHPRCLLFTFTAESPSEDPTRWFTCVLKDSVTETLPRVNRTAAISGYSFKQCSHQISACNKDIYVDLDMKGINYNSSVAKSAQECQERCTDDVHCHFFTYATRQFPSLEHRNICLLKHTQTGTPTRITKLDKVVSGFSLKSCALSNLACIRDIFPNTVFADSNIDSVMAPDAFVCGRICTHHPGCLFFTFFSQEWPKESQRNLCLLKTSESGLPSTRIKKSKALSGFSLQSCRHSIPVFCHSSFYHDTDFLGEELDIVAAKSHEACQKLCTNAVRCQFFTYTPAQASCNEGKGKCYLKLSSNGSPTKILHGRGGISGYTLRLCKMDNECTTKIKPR
Chain of Coagulation factor XI (P03951 388-625 limits assumed): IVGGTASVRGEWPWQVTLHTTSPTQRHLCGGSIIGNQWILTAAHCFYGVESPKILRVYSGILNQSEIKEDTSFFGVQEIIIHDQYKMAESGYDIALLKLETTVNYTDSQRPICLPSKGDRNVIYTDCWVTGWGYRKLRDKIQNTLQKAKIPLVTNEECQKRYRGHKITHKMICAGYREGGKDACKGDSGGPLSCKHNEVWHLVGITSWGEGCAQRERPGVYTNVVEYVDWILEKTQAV

pIC50: 7.92
SMILES: CNC(=O)c1ccc(NC(=O)C(Cc2cnco2)n2cc(OC)c(-c3cc(Cl)ccc3C#N)cc2=O)cn1 (racemic)
